Laboratory results taken from US20040067991A1, “Tetrahydrobenzothiazole analogues as neuroprotective agents” (priority 2003, published 2004).
“Also recorded” adds a separate entry of the source. Where a name gives a salt, the structure may show the parent alone. Read-outs that look alike come from different tables or passages of the source.

What was measured:
[1] = system: primary hippocampal neurons; assay: Neuronal survival of primary hippocampal neurons after excitotoxic insult (glutamate); type: cell-based, rat; details: for protection of hippocampal neurons against glutamate-induced death (in words): 0.04 μM 1 h before glutamate (20 μM), survival at 24 h; for neuron survival increased: neurons pretreated with compound, death induced by glutamate
Procedure: (§1) Dissociated hippocampal cell cultures were established from embryonic day 18 Sprague-Dawley rats (Harlan, Inc.) as described previously. See Culmsee et al. (2001) J. Neurochem. 77:220-28. Cells were grown in polyethyleneimine-coated plastic dishes or 22 m^2 glass coverslips, and incubated in Neurobasal medium containing B27 supplements, 2 mM L-glutamine, 25 mg/ml gentamycin, 1 mM Hepes (Gibco BRL) and 0.001% gentamicin sulfate. All experiments were performed using 9-10 day-old cultures. Camptothecin and etoposide (Signia) were prepared as 500× stocks in DMSO. Neuron survival was quantified by established methods. See Mattson et al. (1993) Neuron 10:243-54. Briefly, viable neurons in premarked fields (10× objective) were counted before experimental treatment and at specified time points thereafter. Neurons with intact neurites of uniform diameter and soma with a smooth round appearance were considered viable. In contrast neurons with fragmented neurites and vacuolated soma were considered non-viable.
Primary hippocampal neurons were prepared and cultured as described above. Cultures were pretreated with compounds 14 and 1 (0.04 μM) 1 h before exposure to glutamate (20 μM) in Locke's medium. The percentage of neuronal survival 24 h after the onset of insult is given as mean values±SD.

rat hippocampal neurons = assay: Neuronal survival assay in cultured hippocampal neurons treated with camptothecin or etoposide; type: cell-based; details: for neuroprotection of hippocampal neurons against camptothecin (in words): 100 nM, added 1 h before camptothecin 5 μM; for neuroprotection of hippocampal neurons against etoposide (in words): added 1 h before etoposide 2.5 μM; for protection of primary hippocampal cells against death induced by camptothecin and etoposide (in words): camptothecin 5 μM, etoposide 2.5 μM; for protection of primary hippocampal cells against death induced by camptothecin and etoposide (in words) / neuronal survival: 24 h; for neuronal survival: pretreated with 100 nM of analogue, then camptothecin (5 μM)
Procedure: 2-amino-4,5,6,7-tetrahydrobenzothiazole hydrogen and 1-(4-methylphenyl)-2-(4,5,6,7-tetrahydro-2-imino-3(2H)-benzothiazolyl)-ethanone hydrobromide and their analogues were assessed for their ability to protect rat hippocampal cells in culture from camptothecin ([…]).
as §1, with “See Culmsee et al. (2001) J. Neurochem.” left out, “See Mattson et al. (1993) Neuron 10:243-54.” left out

caspase activation = assay: Caspase activation; type: cell-based
PC12 cells = assay: Protection of PC12 cells against camptothecin-induced cell death (BCECF AM fluorescence); type: cell-based
Procedure: The 2-amino-4,5,6,7-tetrahydrobenzothiazole hydrogen iodide, 1-(4-methylphenyl)-2-(4,5,6,7-tetrahydro-2-imino-3(2H)-benzothiazolyl)-ethanone hydrobromide, and analogues were tested for their ability to protect PC12 cells against the toxic agent, camptothecin. PC12 cells were cultured in RPMI1640 media containing 10% horse serum and 5% fetal calf serum (37° C., pH 7.4) until confluent. Thereafter, 2.2×10^4 cells per mL were added to each trough of a 96 well plate (approximately 6,270 cells per well 285 μL) and were left to grow for 12 h. The media then was removed and was replaced by media with and without the compounds to be tested, including precursor, PFTα, and numerous analogues (concentration 100-400 nM, prepared in DMSO to a final dilution of 0.4%, 8 wells per concentration). Following 6 h of incubation, camptothecin (40 μM) was added to 4 of each 8 wells, and the cells were incubated for a further 24 h. Cells then were gently washed twice with phosphate buffered saline (PBS: 0.1 M, 37° C., pH 7.4) and were incubated in PBS containing the live-cell indicator dye, 2′,7′-bis(2-carboxyethey)-5-6-carboxyfluorescein AM ester (BCECF AM: 5 μM) (Molecular Probes, CA), for 45 min in minimal light. This fluorescent dye was taken up and retained by live cells. Finally, the cells were washed twice in PBS and their fluorescence then was quantified (excitation: 490 nm, emission: 535 nm, Perkin Elmer HTS 7000).
PC12 cell survival was also assessed. One hundred percent cell survival was determined from cells incubated in the absence of both any compound and camptothecin. […] Compound-induced toxicity was assessed by comparing cells treated with compound at various concentrations in the absence of camptothecin with cells incubated in the absence of both compound and camptothecin. […] Compound-induced cellular protection was assessed by comparing cells incubated with camptothecin with cells incubated with camptothecin in the presence of compound, in a concentration-dependent manner.

C57BL/6 mice given MPTP [2] = assay: MPTP model: striatal dopamine, serotonin and metabolites by HPLC; type: in vivo, mouse; details: striatal tissue; for levels of dopamine, DOPAC, and HVA as compared to the MPTP-induced reduction (in words): 2 mg/kg; for 5-HIAA / 5-HT / DOPAC / Dopamine / HVA: compound 2 mg/kg + MPTP, mean±SE, 4-6 mice/group
Procedure: (§2) The ability of PFTα (5) and compounds 5× (Z-1-117) and 13 (Z-1-143) to protect dopaminergic neurons against MPTP toxicity was tested. MPTP (20 mg/kg) was administered intraperitoneally to 2 month-old male C57BL/6 mice by four injections at two hour intervals to induce dopaminergic cell death.
In a separate experiment, levels of striatal dopamine, dopamine metabolites, serotonin, and serotonin metabolites were measured using HPLC analysis. Specifically, mice were euthanatized, and striatal tissue samples were removed and levels of dopamine, DOPAC, HVA, 5-HT, 5-HIAA were quantified. […] There was no significant difference in levels of serotonin or serotonin metabolites.

[3] = system: striatal tyrosine hydroxylase (TH); assay: MPTP model: striatal tyrosine hydroxylase levels by Western blot densitometry; type: in vivo, mouse; details: 2 mg/kg, 7 days later, hydrobromide
Procedure: as §2
Levels of tyrosine hydroxylase (TH), the enzyme that catalyzes the rate-limiting step in dopamine synthesis, also were assessed in the striatum using Western blot analysis.

C57BL/6 mice given MPTP [4] = assay: MPTP-induced Parkinson's disease model: rotarod behavioral tests; type: in vivo, mouse; details: 2 mg/kg i.p. 30 min before first and 30 min after last MPTP injection; day 7
Procedure: as §2
At seven days, behavioral tests were performed using the rotarod test equipment. The number of falls and running times were measured.

[5] = system: substantia nigra dopaminergic neurons; assay: MPTP model: TH-immunostained cells in the substantia nigra; type: in vivo, mouse; details: 2 mg/kg, seven days after treatment, 4 mice/group
Procedure: as §2
In yet another experiment, the number of TH-immunostained cells in the substantia nigra was assessed in four animals seven days after treatment. Mice were euthanized and perfused by 4% paraformadehyde transcardially. Brain sections were cut and immunostained with an antibody against TH. PFT-A and compound 5× attenuated MPTP-induced loss of substantia nigra dopaniinergic neurons.

[6] = system: C57BL/6 mice, middle cerebral artery occlusion; assay: Transient focal cerebral ischemia/reperfusion (middle cerebral artery occlusion) stroke model; type: in vivo, mouse
Procedure: Surgery was performed in anesthetized (xylazine 5 mg/kg, chloral hydrate 350 mg/kg) mice (3 month old C57B1/6) in accordance with a protocol approved by the NIH Animal Care and Use Committee. The focal ischemia/reperfusion model has been described previously. See Bruce et al. (1996) Nat. Med. 2:788-94. This method involves occluding the middle cerebral artery for 1 h with a nylon thread, and then removing it to allow reperfusion. During the procedure, mice were maintained at 37° C. and blood gases, flow and pressure were monitored. At 24 h after ischemia, mice were anesthetized, decapitated, and their brains were cut into 2 mm coronal sections, which then were stained with triphenyltetrazolium for 30 min at 37° C. Images of the stained brains were captured by digital camera for quantitative analysis of infarct area and volume.
The infarct volume for vehicle was 40 mm^3. When mice were treated with PFTα, infarct volume was 20 mm^3, a highly significant 50% decrease.

[7] = 6 h preincubation with compound, camptothecin 40 μM for 24 h; read-out: PD50; concentration of compounds required to induce 50% protection (PC50) of PC12 cells from camptothecin-induced cell-death
[8] = read-out: PD50; concentration of compounds required to induce 50% protection (PC50) of PC12 cells from camptothecin-induced cell-death; 6 h preincubation with compound, camptothecin 40 μM for 24 h
[9] = compounds 100-400 nM, camptothecin 40 μM 24 h

| SMILES | neuron survival increased [1] [%] | neuroprotection of hippocampal neurons against camptothecin (in words) (rat hippocampal neurons) | neuroprotection of hippocampal neurons against etoposide (in words) (rat hippocampal neurons) | protection of primary hippocampal cells against death induced by camptothecin and etoposide (in words) (rat hippocampal neurons; Hydrobromide) | neuronal survival (rat hippocampal neurons) [%] | caspase activation (in words) (caspase activation) | EC50 (PC12 cells; [7]) [nM] | EC50 (PC12 cells; [8]) [nM] | levels of dopamine, DOPAC, and HVA as compared to the MPTP-induced reduction (in words) (C57BL/6 mice given MPTP [2]) | 5-HIAA (C57BL/6 mice given MPTP [2]) [pg/mg tissue weight] | 5-HT (C57BL/6 mice given MPTP [2]) [pg/mg tissue weight] | DOPAC (C57BL/6 mice given MPTP [2]) [pg/mg tissue weight] | Dopamine (C57BL/6 mice given MPTP [2]) [pg/mg tissue weight] | HVA (C57BL/6 mice given MPTP [2]) [pg/mg tissue weight] | number of falls on rotarod (in words) (C57BL/6 mice given MPTP [4]) | running time on rotarod (in words) (C57BL/6 mice given MPTP [4]) | MPTP-induced loss of substantia nigra dopaminergic neurons, TH-positive cells (in words) [5] | protection of PC12 cells against camptothecin-induced death (in words) (PC12 cells; [9]) | further results |
| --- | --- | --- | --- | --- | --- | --- | --- | --- | --- | --- | --- | --- | --- | --- | --- | --- | --- | --- | --- |
| Br.CCC(=O)Cn1c2c(sc1=N)CCCC2 [Compound 1, 1-(4.5,6,7-tertahydro-2-imino-3(2H)-benzothiazolyl)-2-butanone Hydrobromide] | 39 | significant neuroprotection | more active than compound PFTα | had neuroprotection; also recorded: highly potency | 65 | suppress caspase activation | 571 | – | – | – | – | – | – | – | – | – | – | – | protection of hippocampal neurons against glutamate-induced death (in words) [1]: protect |
| N=c1sc2c(n1Cc1ccccc1)CCCC2 [Compound 14, 3-(phenylmethyl)-4,5,6,7-tetrahydro-2(3H)-benzothiazolimine Hydrobromide] | 133 | significant neuroprotection | more active than compound PFTα | had neuroprotection; also recorded: highly potency | 61 | suppress caspase activation | – | 741 | – | – | – | – | – | – | – | – | – | – | protection of hippocampal neurons against glutamate-induced death (in words) ([1]; Hydrobromide): protect; also recorded: at least partially reversed |
| Br.Cc1ccc(C(=O)Cn2c3c(sc2=N)CC(C)CC3)cc1 (stereo not shown) [Compound 5×, 1-(4-methylphenyl)-2-(4,5,6,7-tertahydro-2-imino-6-methyl-3(2H)-benzothiazolyl)-ethanone hydrobromide] | – | could not protect neurons effectively | activity comparable to PFTα | – | 29 | – | 306 | – | statistically significant increase | 246 ± 15 | 424 ± 12 | 102 | 1833 | 302 ± 20 | statistically significant decease | statistically significant increase | attenuated | highly potent | MPTP-induced loss of striatal tyrosine hydroxylase (in words) [3]: attenuate; also recorded: reverse the MPTP reduction in TH levels; protection of primary hippocampal cells against death induced by camptothecin and etoposide (in words) (rat hippocampal neurons): highly potency |
| Cc1ccc(C(=O)Cn2c3c(sc2=N)CCCC3)cc1 [Compound 5, 1-(4-methylphenyl)-2-(4,5,6,7-tetrahydro-2-imino-3(2H)-benzothiazolyl)-ethanone hydrobromide, reference compound] | – | – | had activity | – | 62 | – | – | 252 | statistically significant increase | 245 ± 33 | 419 ± 20 | 170 | 3314 | 328 ± 35 | statistically significant decease | statistically significant increase | attenuated | protected | MPTP-induced loss of striatal tyrosine hydroxylase (in words) ([3]; listed as PFT-a): reverse the MPTP reduction in TH levels; MPTP-induced loss of striatal tyrosine hydroxylase (in words) ([3]; listed as PFT-alpha): attenuate; improved cell survival compared to vehicle controls after pretreatment (rat hippocampal neurons; 200 nM pretreatment 1 hour, camptothecin 5 μM or etoposide 2.5 μM): improved cell survival; protection of primary hippocampal cells against death induced by camptothecin and etoposide (in words) (rat hippocampal neurons; listed as PFTα, hydrobromide): protects; also recorded: potent activity; toxicity when administered alone to hippocampal cells (rat hippocampal neurons; concentrations up to 400 nM): neither PFTα (5) nor its precursor were toxic; neuronal survival of PC12 cells increased (PC12 cells; compared to PC12 cells treated with camptothecin in the absence of PFTα): up to 70%; brain entry after systemic administration (in words) ([6]; 2 mg/kg i.p.): entered and acted in the brain; infarct area at four different brain levels (in words) ([6]; 2 mg/kg i.p.): reduction in the infarct area; infarct volume ([6]; 2 mg/kg i.p. before 1 h MCA occlusion, 24 h after ischemia): 20 mm^3; decrease in infarct volume ([6]; 2 mg/kg i.p., versus vehicle (40 mm^3)): 50% |
